# Tested on: PKC (mix of isoforms)
# Experiment: PKC assay (counter screen)
# Assay type: biochemical
# Settings: myelin basic protein substrate, 10 μM ATP; read-out: Counter screens IC50 (μM) PKC
# Procedure: Final assay concentrations were as follows: 0.25 mM EGTA, 0.4 mM CaCl, 20 mM Tris pH 7.5, 10 mM MgCl, 1 mM 2-mercaptoethanol, 0.32 mg/ml phosphatidylserine, 0.032 mg/ml diacylglycerol, 10 μM ^33P-ATP, 70 μg/ml MBP, 10 ng/ml PKC, 0.1 mg/ml BSA.
# Assays are performed using 96 deep well assay plates. In each assay well 10 μl of solvent control or appropriate inhibitor dilution with 5 μl ^33P-ATP (components #5 and #3) were premixed. […] The liquid in the assay wells was thoroughly mixed and the assay reactions incubated for 20 minutes at room temperature. The reactions were stopped by adding 100 mM EDTA (50 μl) and 100 mM sodium pyrophosphate (50 μl) and mixing. Phosphorylated MBP was collected on PVDF membranes in 96 well filter plates and quantitated by scintillation counting.
row,Structure (SMILES),IC50 [µM]
1,"CC(C)(N)c1ccc(-c2nc3ccccc3nc2-c2ccccc2)cc1 [Compound 1, 2-[4-(2-aminoprop-2-yl)phenyl]-3-phenylquinoxaline]",> 80
2,"Nc1ccc(-c2nc3ccccc3nc2-c2ccc(N)cc2)cc1 [Compound 2, 2,3-bis(4-aminophenyl)-quinoxaline]",> 80

# From patent publication US7034026B2, “Inhibitors of Akt activity” (Merck & Co., Inc., priority 2001, dated 2006)
